In general, pIC50 refers to the IC50 on a negative log10 scale, so that one unit is a factor of ten.

Among the data in EP2168965A1, “Substituted imidazopyridine, imidazopyrazine, imidazopyridazine and imidazopyrimidine derivatives as melanocortin-4 receptor antagonists” (Santhera Pharmaceuticals (Schweiz) AG, priority 2008, dated 2010) are Emax and IC50 values, retold here.

The target of assay [1] is T1, hMC-4R (Homo sapiens, UniProt P32245).
T1 construct: expressed in transfected cells; host or cells: HEK293 cells (membrane preparations)
The assay is described as follows: Functional assay: membrane based cAMP fluorescence polarization assay for agonistic activity. In kind it is biochemical. To be noted: read-out: % activation functional assay.

In assay [2] the target is T1, hMC-4R. Briefly: Membrane binding assay: competition with fluorescence labeled NDP-alpha-MSH, fluorescence polarization. As to the method:
A membrane binding assay is used to identify competitive inhibitors of fluorescence labeled NDP-alpha-MSH binding to HEK293 cell membrane preparations expressing human melanocortin receptors.
The test compound or unlabeled NDP-alpha-MSH is dispensed at varying concentrations to a 384 well microtiter plate. Fluorescence labeled NDP-alpha-MSH is dispensed at a single concentration, followed by addition of membrane preparations. The plate is incubated for 5 h at room temperature.
The degree of fluorescence polarization is determined with a fluorescence polarization microplate reader.
On the technique in general: In fluorescence polarisation assays a small probe gives low polarisation when free and higher when bound to something large.

Where [3] appears, read: HEK293 cell membrane preparations expressing human melanocortin receptors, 5 h at room temperature, read-out: hMC-4R binding assay IC50.

The structures appear in SMILES notation. pIC50: −log10 of the molar value. Read-outs that look alike come from different tables or passages of the source.

T1 sequence (P32245 whole entry): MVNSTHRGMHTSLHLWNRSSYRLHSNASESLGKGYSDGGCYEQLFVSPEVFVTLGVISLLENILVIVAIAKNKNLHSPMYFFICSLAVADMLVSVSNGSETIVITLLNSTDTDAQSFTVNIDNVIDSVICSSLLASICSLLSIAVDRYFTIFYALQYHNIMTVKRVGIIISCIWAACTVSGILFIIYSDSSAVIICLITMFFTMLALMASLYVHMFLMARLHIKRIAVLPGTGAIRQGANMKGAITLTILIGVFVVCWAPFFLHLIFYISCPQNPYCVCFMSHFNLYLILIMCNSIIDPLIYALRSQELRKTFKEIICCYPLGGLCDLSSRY

On to `COc1cc(-c2nc3ccc(C(=O)N(CCC(C)C)CCC(C)C)cn3c2C#CCN2CCCC2)ccc1F` [Example 24], for which the Emax on hMC-4R [1] was -2%. Besides, the pIC50 at hMC-4R [2] (setting [3]) is 6.00 to 7.00.
The corresponding values for `COc1cc(F)cc(-c2nc3ccc(C(=O)N(CCC(C)C)CCC(C)C)cn3c2C#CCN2CCCC2)c1` [Example 25] are -2% and less than 6.00.
The corresponding values for `CC(C)CCN(CCC(C)C)C(=O)c1ccc2nc(-c3ccoc3)c(C#CCN3CCCC3)n2c1` [Example 7] are 3% and 6.00 to 7.00.
The corresponding values for `CC(C)CCN(CCC(C)C)C(=O)c1ccc2nc(N(C)c3ccccn3)c(C#CCN3CCCC3)n2c1` [Example 13] are -4% and 6.00 to 7.00.
In the case of `Cc1cc(-c2nc3ccc(C(=O)N(CCC(C)C)CCC(C)C)cn3c2C#CCN2CCCC2)n(C)n1` [Example 31], at hMC-4R [1], the Emax is 3%. The pIC50 at hMC-4R [2] (setting [3]) is 6.00 to 7.00.
Regarding `COc1ncc(-c2nc3ccc(C(=O)N(CCC(C)C)CCC(C)C)cn3c2C#CCN2CCCC2)cn1` [Example 34], the pIC50 at hMC-4R [2] (setting [3]) was greater than 7.00.
In the case of `CC(C)CCN(CCC(C)C)C(=O)c1ccc2nc(-c3cnc4c(c3)OCCN4C)c(C#CCN3CCCC3)n2c1` [Example 29], at hMC-4R [1], the Emax was -5%. In addition, at hMC-4R [2] (setting [3]), the pIC50 is greater than 7.00.
In the case of `CC(C)CCN(CCC(C)C)C(=O)c1ccc2nc(Nc3ccccn3)c(C#CCN3CCCC3)n2c1` [Example 11], the Emax on hMC-4R [1] was -7%. The pIC50 at hMC-4R [2] (setting [3]) is greater than 7.00.
Turning to `CC(C)CCN(CCC(C)C)C(=O)c1ccc2nc(-c3ccc4nccnc4c3)c(C#CCN3CCCC3)n2c1` [Example 35], the pIC50 on hMC-4R [2] (setting [3]) was greater than 7.00.
For `CC(C)CCN(CCC(C)C)C(=O)c1ccc2nc(-c3ccc(C#N)c(F)c3)c(C#CCN3CCCC3)n2c1` [Example 26], at hMC-4R [1], the Emax is -4%. For the same compound, the pIC50 at hMC-4R [2] (setting [3]) is 6.00 to 7.00.
The corresponding values for `CC(C)CCN(CCC(C)C)C(=O)c1ccc2nc(N3CCOCC3)c(C#CCN3CCCC3)n2c1` [Example 10] are 0% and 6.00 to 7.00.
The corresponding values for `CC(C)CCN(CCC(C)C)C(=O)c1ccc2nc(-c3ccccc3)c(C#CCN3CCCC3)n2c1` [Example 3] are 0% and less than 6.00.
With `CC(C)CCN(CCC(C)C)C(=O)c1ccc2nc(-c3ccc(F)c(F)c3)c(C#CCN3CCCC3)n2c1` [Example 22], the Emax at hMC-4R [1] was found to be 0%. In addition, the pIC50 on hMC-4R [2] (setting [3]) was 6.00 to 7.00.
The corresponding values for `CC(C)CCN(CCC(C)C)C(=O)c1ccc2nc(-c3cc(F)cc(F)c3)c(C#CCN3CCCC3)n2c1` [Example 27] are -3% and less than 6.00.
Taken in the same sequence, the figures for `COc1cccc(N(C)c2nc3ccc(C(=O)N(CCC(C)C)CCC(C)C)cn3c2C#CCN2CCCC2)c1` [Example 14] were 0% and 6.00 to 7.00.
Taken in the same sequence, the figures for `Cc1n[nH]cc1-c1nc2ccc(C(=O)N(CCC(C)C)CCC(C)C)cn2c1C#CCN1CCCC1` [Example 30] were 4% and 6.00 to 7.00.
`COc1ccc(Nc2nc3ccc(C(=O)N(CCC(C)C)CCC(C)C)cn3c2C#CCN2CCCC2)cn1` [Example 20]: the Emax on hMC-4R [1] was -16%. Also, the negative logarithm of the IC50 (pIC50) on hMC-4R [2] (setting [3]) is greater than 7.00.
The corresponding values for `COc1cc(Nc2nc3ccc(C(=O)N(CCC(C)C)CCC(C)C)cn3c2C#CCN2CCCC2)ccn1` [Example 19] are -13% and greater than 7.00.
For the compound `CC(C)CCN(CCC(C)C)C(=O)c1ccc2nc(Nc3ncccn3)c(C#CCN3CCCC3)n2c1` [Example 9], the Emax on hMC-4R [1] is -12%. Also, on hMC-4R [2] (setting [3]), the pIC50 was 6.00 to 7.00.
Taken in the same sequence, the figures for `CC(C)CCN(CCC(C)C)C(=O)c1ccc2nc(-c3ccc4nccn4c3)c(C#CCN3CCCC3)n2c1` [Example 21] were -12% and greater than 7.00.
Taken in the same sequence, the figures for `COc1ccc(Nc2nc3ccc(C(=O)N(CCC(C)C)CCC(C)C)cn3c2C#CCN2CCCC2)cc1F` [Example 28] were -12% and greater than 7.00.
For the compound `CC(C)CCN(CCC(C)C)C(=O)c1ccc2nc(C#N)c(C#CCN3CCCC3)n2c1` [Example 6], the Emax on hMC-4R [1] came to 6%. In addition, the pIC50 on hMC-4R [2] was less than 6.00.
Consider `CC(C)CCN(CCC(C)C)C(=O)c1ccc2nc(-c3c[nH]nc3C(F)(F)F)c(C#CCN3CCCC3)n2c1` [Example 36], for which the pIC50 at hMC-4R [2] (setting [3]) is 6.00 to 7.00.
`COc1cccc(Nc2nc3ccc(C(=O)N(CCC(C)C)CCC(C)C)cn3c2C#CCN2CCCC2)c1` [Example 12]: the Emax on hMC-4R [1] was -3%. In addition, the pIC50 on hMC-4R [2] (setting [3]) is greater than 7.00.
Taken in the same sequence, the figures for `CC(C)CCN(CCC(C)C)C(=O)c1ccc2nc(-c3cn[nH]c3)c(C#CCN3CCCC3)n2c1` [Example 17] were -6% and greater than 7.00.
Taken in the same sequence, the figures for `CC(C)CCN(CCC(C)C)C(=O)c1ccc2nc(C#Cc3ccccc3)c(C#CCN3CCCC3)n2c1` [Example 4] were 5% and 6.00 to 7.00.
Turning to `CCOC(=O)c1nc2ccc(C(=O)N(CCC(C)C)CCC(C)C)cn2c1C#CCN1CCCC1` [Example 1], the Emax at hMC-4R [1] stood at 0%. The compound further gave a pIC50 at hMC-4R [2] of 6.00 to 7.00.
Regarding `COc1ncc(-c2nc3ccc(C(=O)N(CCC(C)C)CCC(C)C)cn3c2C#CCN2CCCC2)cc1F` [Example 23], on hMC-4R [1], the Emax was -9%. Besides, the pIC50 at hMC-4R [2] (setting [3]) is 6.00 to 7.00.
Regarding `CC(C)CCN(CCC(C)C)C(=O)c1ccc2nc(-c3cnco3)c(C#CCN3CCCC3)n2c1` [Example 5], at hMC-4R [1], the Emax was found to be 0%. Further, the pIC50 at hMC-4R [2] (setting [3]) is greater than 7.00.
In the case of `CC(C)CCN(CCC(C)C)C(=O)c1ccc2nc(-c3ccc(=O)n(C)c3)c(C#CCN3CCCC3)n2c1` [Example 33], the pIC50 at hMC-4R [2] (setting [3]) is greater than 7.00.
As for `COc1cc(Nc2nc3ccc(C(=O)N(CCC(C)C)CCC(C)C)cn3c2C#CCN2CCCC2)ccc1F` [Example 18], the Emax at hMC-4R [1] was -5%. In addition, at hMC-4R [2] (setting [3]), the pIC50 is greater than 7.00.
Taken in the same sequence, the figures for `CC(C)CCN(CCC(C)C)C(=O)c1ccc2nc(C3=CCN(C(=O)OC(C)(C)C)CC3)c(C#CCN3CCCC3)n2c1` [Example 16] were -11% and less than 6.00.
The corresponding values for `CC(C)CCN(CCC(C)C)C(=O)c1ccc2ncc(C#CCN3CCCC3)n2c1` [Example 2] are 0% and 6.00 to 7.00.
The corresponding values for `COc1cccc(-c2nc3ccc(C(=O)N(CCC(C)C)CCC(C)C)cn3c2C#CCN2CCCC2)n1` [Example 32] are -4% and 6.00 to 7.00.
`CC(C)CCN(CCC(C)C)C(=O)c1ccc2nc(-c3cnn(CC4OCCO4)c3)c(C#CCN3CCCC3)n2c1` [Example 15]: the Emax on hMC-4R [1] was -4%. On hMC-4R [2] (setting [3]), the pIC50 is greater than 7.00.
Taken in the same sequence, the figures for `CC(C)CCN(CCC(C)C)C(=O)c1ccc2nc(-c3ccco3)c(C#CCN3CCCC3)n2c1` [Example 8] were 5% and 6.00 to 7.00.
